Laboratory results from patent US20260049072A1, “HETEROCYCLIC COMPOUND FOR INDUCING DEGRADATION OF MUTANT KRAS PROTEIN” (Astellas Pharma Inc., priority 2022, published 2026).

Legend:
[1] = target: T1, RAS G12D (Homo sapiens, UniProt P01116, G12D); assay: RAS G12D degradation activity, Cell ELISA, AsPC-1; type: cell-based; conditions: AsPC-1 cells, 24 hours; read-out: DC50 (RAS G12D 50% degradation value)
T1 construct: host or cells: AsPC-1 human pancreatic cancer cells
Experimental: Test Example 1-2: Evaluation of RAS G12D Degradation Activity on Human KRAS G12D Mutant-Positive Pancreatic Cancer Line AsPC-1
The RAS G12D degradation activities of subject compounds were evaluated in the same manner as in Test Example 1-1 by measuring the expression levels of RAS G12D by a Cell ELISA method.
AsPC-1 cells (ATCC, CRL-1682) were seeded at 36 μL per well on a 384-well plate to give 2.0×10^4 cells per well. As for the cell culture conditions, RPMI-1640 medium (from Sigma-Aldrich) containing 10% fetal bovine serum was used in the presence of 5% CO2 at 37° C.
The next day, the subject compounds (10 points having final concentrations in the range of 3 μM to 0.1 nM) and DMSO, which was the solvent for the subject compounds, as a negative control were diluted 100-fold with a fresh medium and were each added at 4 μL per well, followed by culturing for 24 hours.
The next day, the procedures from the immobilization of the cells to before the addition of the blocking solution were performed by the same methods as in Test Example 1-1. A blocking solution (Intercept Blocking Buffer; from LI-COR Biosciences) was added at 20 μL per well. After allowing the plate to stand for 30 minutes at room temperature, the supernatant was removed by centrifugation. A solution obtained by diluting an anti-R-actin antibody (1,000-fold dilution) with the blocking solution was added to the wells of the positive control as a primary antibody, and a solution obtained by diluting an anti-Ras (G12D Mutant Specific) antibody (Ras (G12D Mutant Specific) (D8H7) Rabbit mAb; from Cell Signaling Technology; 1,000-fold dilution) and an anti-3-actin antibody (1,000-fold dilution) with the blocking solution was added to the other wells as primary antibodies, each at 15 μL per well. The plate was allowed to stand overnight at 4° C.
The next day, the supernatant was removed by centrifugation, and the plate was washed with PBS. The supernatant was removed by centrifugation, and a solution obtained by diluting an anti-rabbit IgG antibody and an anti-mouse IgG antibody 1,000-fold with the blocking solution was added at 15 μL per well as secondary antibodies. After allowing the plate to stand at room temperature for an hour, the supernatant was removed by centrifugation, and the plate was washed with PBS. After removing the supernatant, the plate was dried as it was with air at room temperature for two hours or more, and the 700-nm and 800-nm fluorescent signals were measured with Aerius.
With the RAS G12D signaling value at the time of addition of DMSO corrected with the signaling value of β-actin taken as 0% and with the RAS G12D signaling value under the conditions of staining with the anti-β-actin antibody alone taken as 100%, the RAS G12D degradation rates were calculated. The 50% degradation values (DC50) were calculated by Sigmoid-Emax model nonlinear regression analysis.

[2] = test system: phosphorylation of ERK (Thr202/Tyr204); assay: ERK phosphorylation inhibitory activity, cell ELISA, PA-TU-8902; type: cell-based; conditions: Homo sapiens, PaTu 8902; PA-TU-8902 cells, 24 hours, 100% = 300 nM trametinib; read-out: IC50 (ERK phosphorylation inhibition)
Experimental: Test Example 2: Evaluation of ERK Phosphorylation Inhibitory Activity on Human KRAS G12V Mutant-Positive Pancreatic Cancer Line PA-TU-8902
The ERK phosphorylation inhibitory activities of subject compounds were evaluated by measuring phosphorylation of the 202th threonine (Thr202) and the 204th tyrosine (Tyr204) of ERK located downstream of the KRAS signal by cell ELISA.
PA-TU-8902 cells were seeded at 36 µL/well on a 384-well plate (from Greiner bio-one) to give 5.0×10^3 cells per well. The cell culture conditions were the same conditions as in Test Example 1-1.
The next day, the subject compounds (9 points having final concentrations in the range of 3 μM to 0.3 nM), trametinib (MEK inhibitor) of a final concentration of 300 nM as a positive control and DMSO, which was the solvent for the subject compounds, as a negative control were diluted 100-fold with a fresh medium and were each added at 4 μL per well, followed by culturing for 24 hours. After culturing, a 30% glyoxal solution (40% glyoxal [from Nacalai Tesque] was diluted with PBS) was quickly added at 30 μL per well, and the plate was allowed to stand for an hour and 30 minutes at room temperature to thus immobilize the cells. Then, the plate was centrifuged (110×g, seven seconds, hereinafter centrifugation was performed under the same conditions unless otherwise specified) to remove the supernatant, and 0.1% Triton X-100-containing PBS was added at 20 μL per well. After allowing the plate to stand for 10 minutes at room temperature, the supernatant was removed by centrifugation, and the same operation was further repeated. Next, 0.5% SDS-containing PBS was added at 20 μL per well. The plate was allowed to stand at room temperature for 30 minutes and was then centrifuged to remove the supernatant. Subsequently, a blocking solution (Intercept Blocking Buffer) was added at 20 μL per well, and the plate was allowed to stand for an hour at room temperature. The supernatant was removed by centrifugation, and an ERK (Thr202/Tyr204) phosphorylation antibody (Phospho-p44/42 MAPK (Erk 1/2) (Thr202/Tyr204) (D13.14.4E) XP Rabbit mAb; from Cell Signaling Technology) diluted 2,500-fold with the blocking solution was added at 15 μL per well as a primary antibody. The plate was allowed to stand at 4° C. overnight.
The next day, the plate was centrifuged to remove the supernatant, and 0.05% Tween-20-containing PBS (from Thermo Scientific; 20×PBS Tween-20 was diluted 20-fold with ion exchange water and used) was added at 50 μL per well. The supernatant was removed by centrifugation to thus wash each well. The washing was performed three times in total. After washing, an anti-rabbit IgG antibody diluted 1,000-fold with the blocking solution was added at 15 μL per well as a secondary antibody, and the plate was allowed to stand for an hour at room temperature. The plate was centrifuged to remove the supernatant, and each well was washed three times with 0.05% Tween-20-containing PBS in the same manner as after the primary antibody reaction. Centrifugation after the third washing was performed at 171×g for 17 seconds. After removing the supernatant, the plate was dried as it was with air at room temperature for three hours or more, and the 800-nm fluorescent signals were measured with Aerius.
With the signaling value at the time of addition of DMSO taken as 0% inhibition and with the signaling value at the time of addition of 300 nM trametinib taken as 100% inhibition, the 50% inhibition values (IC50) were calculated by Sigmoid-Emax model nonlinear regression analysis.

T1 sequence (P01116 1-188 isoform P01116-2 G12D): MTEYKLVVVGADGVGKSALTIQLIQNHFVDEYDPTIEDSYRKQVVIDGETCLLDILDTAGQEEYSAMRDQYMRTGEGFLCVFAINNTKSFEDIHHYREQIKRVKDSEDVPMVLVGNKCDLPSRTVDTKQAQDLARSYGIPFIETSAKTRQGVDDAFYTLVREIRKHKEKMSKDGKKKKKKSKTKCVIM

| Structure (SMILES) | DC50 [1] [nM] | IC50 [2] [nM] |
| --- | --- | --- |
| CO[C@@H](C)COc1nc(N(C)[C@H]2CCN(C(=O)NCCN(C)C)C2)c2cc(C3CC3)c(-c3c(C)c(F)cc4[nH]ncc34)c(OCc3ccc(-c4cn([C@H](C(=O)N5C[C@H](O)C[C@H]5C(=O)N[C@@H](CO)c5ccc(-c6scnc6C)cc5)C(C)C)nn4)cc3)c2n1 (atropisomer, axis not shown) [Example 19] | 4 | 31 |
| CO[C@@H](C)COc1cc(OC2CN(C(=O)N3CC(CN(C)C)C3)C2)c2cc(C3CC3)c(-c3c(C)c(F)cc4[nH]ncc34)c(OCc3ccc(-c4cn([C@H](C(=O)N5C[C@H](O)C[C@H]5C(=O)N[C@@H](CO)c5ccc(-c6ocnc6C)cc5)C(C)C)nn4)cc3)c2n1 (atropisomer, axis not shown; (M)) [Example 6, (4R)-1-[(2S)-2-(4-{4-[({(7M)-6-cyclopropyl-4-[(1-{3-[(dimethylamino)methyl]azetidine-1-carbonyl}azetidin-3-yl)oxy]-7-(6-fluoro-5-methyl-1H-indazol-4-yl)-2-[(2S)-2-methoxypropoxy]quinolin-8-yl}oxy)methyl]phenyl}-1H-1,2,3-triazol-1-yl)-3-methylbutanoyl]-4-hydroxy-N-{(1R)-2-hydroxy-1-[4-(4-methyl-1,3-oxazol-5-yl)phenyl]ethyl}-L-prolinamide] | 5 | 7 |
| CO[C@@H](C)COc1nc(OC2CN(C(=O)NCCN(C)C)C2)c2cc(C3CC3)c(-c3c(C)c(F)cc4[nH]ncc34)c(OCc3ccc(-c4cn([C@H](C(=O)N5C[C@H](O)C[C@H]5C(=O)N[C@@H](CO)c5ccc(-c6scnc6C)cc5)C(C)C)nn4)cc3)c2n1 (atropisomer, axis not shown) [Example 17] | 11 | 23 |
| CO[C@@H](C)COc1cc(OC2CN(C(=O)N3CC(CN(C)C)C3)C2)c2cc(C3CC3)c(-c3c(C)c(F)cc4[nH]ncc34)c(OCc3ccc(-c4cn([C@H](C(=O)N5C[C@H](O)C[C@H]5C(=O)N[C@@H](CO)c5ccc(-c6scnc6C)cc5)C(C)C)nn4)cc3)c2n1 (atropisomer, axis not shown; (M)) [Example 14, (4R)-1-[(2S)-2-(4-{4-[({(7M)-6-cyclopropyl-4-[(1-{3-[(dimethylamino)methyl]azetidine-1-carbonyl}azetidin-3-yl)oxy]-7-(6-fluoro-5-methyl-1H-indazol-4-yl)-2-[(2S)-2-methoxypropoxy]quinolin-8-yl}oxy)methyl]phenyl}-1H-1,2,3-triazol-1-yl)-3-methylbutanoyl]-4-hydroxy-N-{(1R)-2-hydroxy-1-[4-(4-methyl-1,3-thiazol-5-yl)phenyl]ethyl}-L-prolinamide] | 2 | 10 |
| CO[C@@H](C)COc1nc(NC2CN(C(=O)N3CC(CN(C)C)C3)C2)c2cc(C3CC3)c(-c3c(C)c(F)cc4[nH]ncc34)c(OCc3ccc(-c4cn([C@H](C(=O)N5C[C@H](O)C[C@H]5C(=O)N[C@@H](CO)c5ccc(-c6scnc6C)cc5)C(C)C)nn4)cc3)c2n1 (atropisomer, axis not shown) [Example 25] | 3 | 13 |
| CO[C@@H](C)COc1nc(N2CC(C#N)C2)c2cc(C3CC3)c(-c3c(C)c(F)cc4[nH]ncc34)c(OCc3ccc(-c4cn([C@H](C(=O)N5C[C@H](O)C[C@H]5C(=O)N[C@@H](CO)c5ccc(-c6scnc6C)cc5)C(C)C)nn4)cc3)c2n1 (atropisomer, axis not shown) [Example 20] | 16 | 34 |
| CO[C@@H](C)COc1nc(NC2CN(C(=O)O[C@H]3C[C@@H](N(C)C)C3)C2)c2cc(C3CC3)c(-c3c(C)c(F)cc4[nH]ncc34)c(OCc3ccc(-c4cn([C@H](C(=O)N5C[C@H](O)C[C@H]5C(=O)N[C@@H](CO)c5ccc(-c6ocnc6C)cc5)C(C)C)nn4)cc3)c2n1 (atropisomer, axis not shown; (M)) [Example 1, (1s,3R)-3-(dimethylamino)cyclobutyl 3-({(7M)-6-cyclopropyl-7-(6-fluoro-5-methyl-1H-indazol-4-yl)-8-{[4-(1-{(2S)-1-[(2S,4R)-4-hydroxy-2-({(1R)-2-hydroxy-1-[4-(4-methyl-1,3-oxazol-5-yl)phenyl]ethyl}carbamoyl)pyrrolidin-1-yl]-3-methyl-1-oxobutan-2-yl}-1H-1,2,3-triazol-4-yl)phenyl]methoxy}-2-[(2S)-2-methoxypropoxy]quinazolin-4-yl}amino)azetidine-1-carboxylate] | 5 | 19 |
| CO[C@@H](C)COc1nc(NC2CN(C(=O)O[C@H]3C[C@@H](N(C)C)C3)C2)c2cc(C3CC3)c(-c3c(C)c(F)cc4[nH]ncc34)c(OCc3ccc(-c4cn([C@H](C(=O)N5C[C@H](O)C[C@H]5C(=O)N[C@@H](CO)c5ccc(-c6scnc6C)cc5)C(C)C)nn4)cc3)c2n1 (atropisomer, axis not shown; (M)) [Example 11, (1s,3R)-3-(dimethylamino)cyclobutyl 3-({(7M)-6-cyclopropyl-7-(6-fluoro-5-methyl-1H-indazol-4-yl)-8-{[4-(1-{(2S)-1-[(2S,4R)-4-hydroxy-2-({(1R)-2-hydroxy-1-[4-(4-methyl-1,3-thiazol-5-yl)phenyl]ethyl}carbamoyl)pyrrolidin-1-yl]-3-methyl-1-oxobutan-2-yl}-1H-1,2,3-triazol-4-yl)phenyl]methoxy}-2-[(2S)-2-methoxypropoxy]quinazolin-4-yl}amino)azetidine-1-carboxylate] | 4 | 14 |
| Cc1ncsc1-c1ccc([C@H](CO)NC(=O)[C@@H]2C[C@@H](O)CN2C(=O)[C@H](C(C)C)n2cc(-c3ccc(COc4c(-c5c(C)c(F)cc6[nH]ncc56)c(C5CC5)cc5c(N6CC[C@H]6C(N)=O)nc(OC6CCOCC6)nc45)cc3)nn2)cc1 [Example 35] | 16 | 11 |
